Experimental data: patent publication US8586577B2, “Diazepane acetamide derivatives as selective 11B-HSD1 inhibitors” (Merck Patent GmbH, priority 2006, dated 2013)
Each block holds one compound with its values, some of them ahead of it.

Columns and labels:
Type in all cases: biochemical
human 11-beta HSD-2 = target: T1, human 11-beta HSD-2 (Homo sapiens, UniProt P80365); test: 11beta-HSD2 enzyme assay, human recombinant enzyme (cortisol, NAD, carbenoxolone stop); settings: for IC50: read-out: Inhibition of human 11-beta HSD-2 IC50; for Selectivity Ratio human HSD2/HSD1: ratio of IC50 human HSD-2 to human HSD-1
T1 construct: made in house; host or cells: E. coli
T1 sequence (P80365 1-405): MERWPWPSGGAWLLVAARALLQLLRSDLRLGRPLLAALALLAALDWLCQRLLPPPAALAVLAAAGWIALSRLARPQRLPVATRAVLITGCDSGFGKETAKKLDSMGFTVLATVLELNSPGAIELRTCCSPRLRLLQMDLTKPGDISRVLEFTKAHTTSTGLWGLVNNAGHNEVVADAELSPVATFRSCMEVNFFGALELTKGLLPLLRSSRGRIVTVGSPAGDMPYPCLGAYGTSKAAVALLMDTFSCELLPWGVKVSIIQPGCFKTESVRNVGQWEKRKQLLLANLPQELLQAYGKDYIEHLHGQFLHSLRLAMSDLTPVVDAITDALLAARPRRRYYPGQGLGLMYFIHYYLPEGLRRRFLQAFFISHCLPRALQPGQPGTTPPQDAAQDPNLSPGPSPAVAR
Method: [Worded in the source for another target; used here, by the source, with some conditions changed.] (§1) Human recombinant 11beta-hydroxysteroid dehydrogenase type 1 (11beta-HSD1) enzyme and type 2 (11beta-HSD2) enzymes were expressed expressed in E. coli. Mice liver microsome fractions were purchased from TEBU.
(§2) The 11beta-HSD1 enzyme assay was carried out in 96 well microliter plates in a total volume of 100 μl containing 30 mM Hepes buffer, pH 7.4 with 1 mM EDTA, substrate mixture cortisone/NADPH (200 nM/200 μM), G-6-P (1 mM) and inhibitors in serial dilutions. Reactions were initiated by addition of 10 μl 11beta-HSD1 (3 μg) from E. coli, or as microsome fractions from mice liver (2.5 μg). Following mixing, the plates were shaken for 150 minutes at 37° C. The reactions were terminated with 10 μl Acid-18beta glycyrrhetinic stop solution. Determinations of cortisol levels in 11 beta-HSD1 preparations were monitored by HTRF (HTRF cortisol assay from C is bio international).
(§3) Activity is expressed in % of control or concentration to inhibit 50% of the enzyme activity (IC50).

mouse 11-beta HSD-1 = target: T2, mouse 11-beta HSD-1 (Mus musculus, UniProt P50172); test: 11beta-HSD1 enzyme assay, mice liver microsome fractions, HTRF cortisol detection; settings: for IC50: read-out: Inhibition of mouse 11-beta HSD-1 IC50
T2 construct: or as microsome fractions from mice liver (2.5 μg); tissue TEBU; host or cells: mouse liver microsome fractions
Method: as §1, §2, §3

human 11-beta HSD-1 = target: T3, human 11-beta HSD-1 (Homo sapiens, UniProt P28845); test: 11beta-HSD1 enzyme assay, human recombinant enzyme from E. coli, HTRF cortisol detection; settings: cortisone/NADPH 200 nM/200 μM, 150 min at 37° C., read-out: Inhibition of human 11-beta HSD-1 IC50
T3 construct: made in house; host or cells: E. coli
Method: as §1, §2, §3

T2 sequence (P50172 whole entry): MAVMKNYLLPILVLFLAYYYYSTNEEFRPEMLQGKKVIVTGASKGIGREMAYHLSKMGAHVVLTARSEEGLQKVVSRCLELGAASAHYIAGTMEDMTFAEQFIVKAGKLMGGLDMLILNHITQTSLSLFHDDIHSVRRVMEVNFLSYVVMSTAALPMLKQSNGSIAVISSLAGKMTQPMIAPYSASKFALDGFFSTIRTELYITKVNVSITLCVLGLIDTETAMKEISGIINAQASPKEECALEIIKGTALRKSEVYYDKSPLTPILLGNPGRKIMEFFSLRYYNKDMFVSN
T3 sequence (P28845 whole entry): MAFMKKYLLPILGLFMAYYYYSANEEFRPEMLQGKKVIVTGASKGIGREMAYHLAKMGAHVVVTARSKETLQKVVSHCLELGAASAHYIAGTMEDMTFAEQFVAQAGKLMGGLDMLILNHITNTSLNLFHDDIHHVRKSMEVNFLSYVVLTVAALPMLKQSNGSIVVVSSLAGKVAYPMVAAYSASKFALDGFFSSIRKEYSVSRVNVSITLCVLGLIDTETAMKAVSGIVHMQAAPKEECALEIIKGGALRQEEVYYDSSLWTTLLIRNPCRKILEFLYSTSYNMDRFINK

SMILES: O=C(CN1CCCN(S(=O)(=O)c2ccccc2Cl)CC1)N1CCCC2CCCCC21 (centres unmarked) [Ex 2, 2-[4-(2-Chloro-benzenesulfonyl)-[1,4]diazepan-1-yl]-1-(octahydro-quinolin-1-yl)-ethanone]
Inhibition of human 11-beta HSD-2, activity in % of control (human 11-beta HSD-2; at 10 μM, human recombinant enzyme): 81% of Ctrl
IC50 (mouse 11-beta HSD-1): 250 nM

SMILES: O=C(CN1CCCN(S(=O)(=O)c2ccccc2F)CC1)N1CCCC2CCCCC21 (centres unmarked) [Ex 2-1, 2-[4-(2-Fluoro-benzenesulfonyl)-[1,4]diazepan-1-yl]-1-(octahydro-quinolin-1-yl)-ethanone]
IC50 (human 11-beta HSD-2; human recombinant enzyme): 3 µM
Selectivity Ratio human HSD2/HSD1 (human 11-beta HSD-2): 111
IC50 (human 11-beta HSD-1): 27 nM
Inhibition of mouse 11-beta HSD-1, activity in % of control (mouse 11-beta HSD-1; at 1 μM): 53% of Ctrl

SMILES: O=C(CN1CCCN(S(=O)(=O)c2c(F)cccc2F)CC1)N1CCCC2CCCCC21 (centres unmarked) [Ex 2-2, 2-[4-(2,6-Difluoro-benzenesulfonyl)-[1,4]diazepan-1-yl]-1-(octahydro-quinolin-1-yl)-ethanone]
IC50 (human 11-beta HSD-1): 17 nM

SMILES: O=C(CN1CCCN(S(=O)(=O)c2ccccc2F)CC1)N(C1CCCCC1)C1CC1 [Ex 3, N-Cyclohexyl-N-cyclopropyl-2-[4-(2-fluoro-benzenesulfonyl)-[1,4]diazepan-1-yl]-acetamide]
IC50 (human 11-beta HSD-2; human recombinant enzyme): 7 µM
Selectivity Ratio human HSD2/HSD1 (human 11-beta HSD-2): 92
IC50 (human 11-beta HSD-1): 76 nM
IC50 (mouse 11-beta HSD-1): 230 nM

The remaining lines, values ahead:

IC50 (human 11-beta HSD-1): 430 nM
SMILES: CN(C(=O)CN1CCCN(S(=O)(=O)c2ccccc2F)CC1)C1CCCCC1 [Ex 3-3, N-Cyclohexyl-2-[4-(2-fluoro-benzenesulfonyl)-[1,4]diazepan-1-yl]-N-methyl-acetamide]

IC50 (human 11-beta HSD-1): 420 nM
SMILES: O=C(CN1CCCN(S(=O)(=O)c2ccccc2Cl)CC1)N1CCCCC1 [Ex 3-6, 2-[4-(2-Chloro-benzenesulfonyl)-[1,4]diazepan-1-yl]-1-piperidin-1-yl-ethanone]

IC50 (human 11-beta HSD-1): 122 nM
SMILES: O=C(CN1CCCN(S(=O)(=O)c2ccccc2F)CC1)N1CCC2(C=Cc3ccccc32)CC1 [Ex 3-10, 2-[4-(2-fluoro-benzenesulfonyl)-[1,4]diazepan-1-yl]-1-spiro[1H-inden-1,4′piperidin-1-yl)-ethanone]
